Measured values taken from patent US8067537B2, “Composition and method for treatment of stomatitis” (Kyowa Hakko Bio Co., Ltd., priority 2004, dated 2011).

Test system: chronic stomatitis
Experiment: Effectiveness of glutathione in treatment of cat stomatitis
Format: in vivo
[1] = one cat with AIDS and serious chronic stomatitis, 30 mg/kg per day mixed in the feed for two weeks

| Compound | improvement of chronic stomatitis (same cat, nearly 10 years of treatment before the glutathione) | appetite [1] | fauces erosion and gum inflammation [1] |
| --- | --- | --- | --- |
| interferon [reference compound] | no improvement |  |  |
| N[C@@H](CCC(=O)N[C@@H](CS)C(=O)NCC(=O)O)C(=O)O [reduced glutathione, gamma-L-Glu-L-Cys-Gly] |  | improved | dramatic improvements |
